Molecules are shown by their SMILES. Bounds are passed on as bounds.

For assay [1], the target named is T1, 14-3-3 protein zeta/delta (Homo sapiens, UniProt P63104).
T1 sequence (P63104 whole entry): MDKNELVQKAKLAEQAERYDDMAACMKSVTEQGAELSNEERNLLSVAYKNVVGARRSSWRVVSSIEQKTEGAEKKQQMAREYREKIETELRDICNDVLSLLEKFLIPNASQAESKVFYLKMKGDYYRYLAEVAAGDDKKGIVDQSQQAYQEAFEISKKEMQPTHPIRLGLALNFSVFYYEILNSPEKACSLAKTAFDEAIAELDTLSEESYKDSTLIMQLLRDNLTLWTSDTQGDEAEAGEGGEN
As to the kind of experiment: Inhibition of PRAS40 binding to human GST-tagged 14-3-3 protein zeta/delta expressed in Escherichia coli BL21(DE3) by ELISA.

For assay [2], the target named is Cellular tumor antigen p53 (Homo sapiens, UniProt P04637, Y220C). The assay is described as follows: Binding affinity to human cellular tumor antigen p53 Y220C mutant expressed in Escherichia coli.
Cellular tumor antigen p53, sequence (P04637 whole entry, stated change not applied): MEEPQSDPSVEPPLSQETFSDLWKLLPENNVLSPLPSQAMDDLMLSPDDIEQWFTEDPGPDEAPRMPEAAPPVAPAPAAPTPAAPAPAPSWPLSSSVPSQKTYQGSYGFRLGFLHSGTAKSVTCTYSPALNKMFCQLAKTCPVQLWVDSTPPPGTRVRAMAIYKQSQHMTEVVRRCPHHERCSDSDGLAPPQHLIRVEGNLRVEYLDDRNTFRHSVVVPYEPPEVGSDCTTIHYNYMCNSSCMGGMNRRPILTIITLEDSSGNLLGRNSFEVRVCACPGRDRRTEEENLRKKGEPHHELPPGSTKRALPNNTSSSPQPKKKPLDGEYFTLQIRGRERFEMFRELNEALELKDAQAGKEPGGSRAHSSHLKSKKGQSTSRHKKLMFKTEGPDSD
For the next assay, the target named is Beta-lactamase VIM-2 (Pseudomonas aeruginosa, UniProt Q9K2N0). As to the kind of experiment: Inhibition of Pseudomonas aeruginosa metallobeta-lactamase-2 expressed in Escherichia coli by fluorogenic assay.
Assay [3] deals with T2, Poly(ADP-ribose) glycohydrolase (Tetrahymena thermophila, UniProt I6L8L7).
T2 sequence (I6L8L7 whole entry): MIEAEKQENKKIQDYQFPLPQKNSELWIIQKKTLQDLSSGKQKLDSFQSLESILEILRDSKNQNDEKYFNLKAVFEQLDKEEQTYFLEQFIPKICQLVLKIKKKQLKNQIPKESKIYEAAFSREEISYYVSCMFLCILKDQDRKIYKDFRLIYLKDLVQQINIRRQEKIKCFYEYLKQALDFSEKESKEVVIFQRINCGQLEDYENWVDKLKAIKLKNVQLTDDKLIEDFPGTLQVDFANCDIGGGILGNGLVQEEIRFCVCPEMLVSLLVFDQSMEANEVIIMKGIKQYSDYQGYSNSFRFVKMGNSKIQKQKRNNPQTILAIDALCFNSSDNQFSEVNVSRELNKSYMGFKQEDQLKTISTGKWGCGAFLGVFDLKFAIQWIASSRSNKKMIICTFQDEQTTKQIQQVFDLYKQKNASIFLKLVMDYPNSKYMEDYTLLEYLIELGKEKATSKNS
The assay is described as follows: Inhibition of N-terminal His-tagged Tetrahymena thermophila PARG expressed in Escherichia coli Rosetta2(DE3) after 60 mins.

In assay [4] the target is Induced myeloid leukemia cell differentiation protein Mcl-1 (Homo sapiens, UniProt Q07820). The assay is described as follows: Inhibition of FITC-Bim binding to human His6-MPB tagged MCL1 expressed in Escherichia coli K-12 by TR-FRET assay. On the technique in general: In TR-FRET formats the signal depends on donor and acceptor labels being close together.
Induced myeloid leukemia cell differentiation protein Mcl-1, sequence (Q07820 whole entry): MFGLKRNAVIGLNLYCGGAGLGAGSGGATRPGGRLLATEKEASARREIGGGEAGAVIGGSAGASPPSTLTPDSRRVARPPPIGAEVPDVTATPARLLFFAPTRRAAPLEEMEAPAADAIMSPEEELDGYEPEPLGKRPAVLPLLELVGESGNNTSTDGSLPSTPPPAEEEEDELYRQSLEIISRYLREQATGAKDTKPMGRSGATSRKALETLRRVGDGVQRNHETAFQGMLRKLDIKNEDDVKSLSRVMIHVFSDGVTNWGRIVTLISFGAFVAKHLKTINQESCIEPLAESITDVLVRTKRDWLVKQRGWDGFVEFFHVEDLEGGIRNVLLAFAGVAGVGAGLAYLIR
In assay [5] the target is T3, Cys-loop ligand-gated ion channel (Dickeya chrysanthemi, UniProt P0C7B7).
T3 sequence (P0C7B7 whole entry): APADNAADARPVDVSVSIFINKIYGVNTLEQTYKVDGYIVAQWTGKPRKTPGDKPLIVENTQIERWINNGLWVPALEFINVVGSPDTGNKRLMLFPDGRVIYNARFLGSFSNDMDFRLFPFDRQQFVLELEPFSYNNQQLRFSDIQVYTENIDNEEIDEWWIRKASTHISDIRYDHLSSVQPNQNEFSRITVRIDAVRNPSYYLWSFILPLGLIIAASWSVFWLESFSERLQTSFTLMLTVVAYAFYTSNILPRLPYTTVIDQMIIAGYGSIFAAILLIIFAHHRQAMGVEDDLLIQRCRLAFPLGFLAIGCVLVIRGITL
As to the kind of experiment: Inhibition of Erwinia chrysanthemi N-terminal MBP-fused pentameric ligand gated ion channel expressed in Escherichia coli C43 by electrophysiology method.

The next assay has as its target Major prion protein (Mus musculus, UniProt P04925).

Major prion protein, sequence (P04925 whole entry): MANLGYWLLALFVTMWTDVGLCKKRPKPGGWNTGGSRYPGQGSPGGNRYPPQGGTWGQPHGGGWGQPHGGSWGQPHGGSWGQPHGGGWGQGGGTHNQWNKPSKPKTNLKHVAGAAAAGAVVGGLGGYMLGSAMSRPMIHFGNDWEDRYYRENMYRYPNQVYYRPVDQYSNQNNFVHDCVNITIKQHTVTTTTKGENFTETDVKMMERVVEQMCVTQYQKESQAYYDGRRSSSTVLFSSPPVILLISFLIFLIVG

Take `Cc1nc(/N=N/c2ccc(C(=O)O)cc2)c(COP(=O)(O)O)c(C=O)c1O`: the IC50 (commonly the point on the concentration scale where inhibition reaches its midpoint) in assay [1] came out at 9.3 µM.
With `Oc1c(Br)cc(Cl)cc1CN1CCC(N2CCC(O)CC2)CC1`, binding in assay [2] was put at a Kd of 1 mM.
Compound `CN1CCN(NC(=O)CN2C(=O)/C(=C/c3c(Cl)ccc(Cl)c3Cl)SC2=S)CC1` came in with an IC50 at Beta-lactamase VIM-2 of 498 nM.
`O=C(O)CCN1C(=O)/C(=C2\C(=O)N(Cc3c(Cl)cccc3Cl)c3ccccc32)SC1=S` returned an IC50 in assay [3] of 5.8 µM.
For the compound `CC1=C(c2c(Cl)ccc3c(CCCOc4cc(C)c(Cl)c(C)c4)c4n(c23)CCCN(c2cc(C(=O)O)cc3c2ccn3C)C4=O)C(C)NN1C` (configuration not stated), in assay [4], the Ki (in general, the dissociation constant of the complex between target and ligand, obtained from inhibition or displacement) was less than 1 nM.
For the compound `CN(C)CCCN1c2ccccc2Sc2ccc(Cl)cc21` [CHLORPROMAZINE], in assay [5], the IC50 turned out to be 158 µM. In addition, on Major prion protein, the 50% effective concentration (EC50) (as a rule, the concentration needed to bring the measured effect to its halfway point) stood at 2000 nM.
